pIC50: −log10 of the molar value. Like-named read-outs stand apart in the source and are kept apart here.
Experiments:
Type in all cases: cell-based
[1] = test system: T-47D human breast cancer cells; assay: Single agent growth inhibition (Cell Titer-Glo proliferation); settings: T47D, 72 hours
Experimental: (§1) The growth inhibitory activities of two test agents, eribulin and entinostat, were determined alone and in combination against 12 human breast cancer cell lines (Table 1). The human breast tumor cell lines were selected based on their profile characteristics of being either human epidermal growth factor receptor 2 negative (Her2') and estrogen receptor positive (ER^+) or Triple Negative (Her2^-, ER^-, and progesterone receptor negative [PR^-]). Activities of individual agents were determined by curve-fitting the concentration of agent that inhibits cell growth by 50% compared to the control cells in a four parameter-logistic equation, whereas agent combinations were determined by the method of (Chou and […] Advances in Enzyme Regulation 22:27-55, 1984), and analyzed with CalcuSyn software. Fa, the fraction of affected drug targets at a given drug concentration, was calculated from the fractional decrease. Each agent was tested individually to determine the median-effect dose, Dm, (or EC50, the 50% effect concentration). For combination treatments, drug solutions were mixed at ratios providing approximately equipotent concentrations based upon relative Dm, and this mixture was serially diluted to yield test concentrations. The Combination Index (CI), computed from ratios of the concentrations of mixed and unmixed drugs that produce the same Fa, indicates whether inhibition is additive, synergistic, or antagonistic. In whole-cell assays, inhibitor interactions are complex (mixed), rather than mutually exclusive (purely competitive) or nonexclusive (purely non-competitive), CI values for both types of inhibition are reported to define the range of possible values. […] Finally, in Experiment 3, we determined the antiproliferative activity of the study agents in combination against the panel of human tumor cell lines. […] We further analyzed quadruplicate samples over a seven point dose response range. MCF-7 human breast cancer cells were cultured in RPMI 1640 medium supplemented with 10% fetal bovine serum (FBS), 2 mM glutamine, 10 mM 4-(2-hydroxyethyl)-1-piperazineethanesulfonic acid (HEPES), 0.075% sodium bicarbonate, 100 units/mL sodium penicillin G, 100 μg/mL streptomycin sulfate and 25 μg/mL gentamicin. T-47D human breast cancer cells were cultured in RPMI 1640 medium supplemented with 10% FES. 4.5 g/L glucose. 2 mM glutamine. 10 mM HEPES, 0.2 units/mL Insulin, 1 mM sodium pyruvate, 100 units/mL sodium penicillin G, 100 streptomycin sulfate and 25 μg/mL gentamicin, ZR-75-1 human breast cancer cells were cultured in RPMI 1640 medium supplemented with 10% FBS, 4.5 g/L. glucose, 2 mM glutamine, 10 […] HEPES, 1 mM sodium pyruvate, 100 units/mL sodium penicillin G, 100 μg/mL streptomycin sulfate and 25 μg/mL gentamicin. […] HCC70 human breast cancer cells were cultured in RPMI1640 medium supplemented with 10% FBS, 2 mM glutamine, 4.5 g/L glucose, 10 mM HEPES, 0.075% sodium bicarbonate, 1 mM sodium pyruvate, 100 units/mL sodium penicillin 0, 100 μg/mL streptomycin sulfate and 25 μg/mL gentamicin. […] The tumor cells were cultured in tissue culture flasks in a humidified incubator at 37° C., in an atmosphere of 5% CO2 and 95% air; except for the MDA-MB-134-VI, MDA-MB-175-VII, MDA-MB-415, and MDA-MB-436, these cells were cultured at 37° C. in 100% air and no additional CO2. The selected human tumor cells were seeded at 2,000-5,000 cells/well in a clear polystyrene 96-well microculture plate (Corning® Costar® 96-well flat bottom plate, Cat. No. 3997) in a total volume of 90 μL per well. After 24 hours of incubation in a humidified incubator at 37° C. with 5% CO2 and 95% air (except for the MDA-MB-134-VI, MDA-MB-175-VII, MDA-MB-415, and MDA-MB-436, these cells were cultured at 37° C. in 100% air, no additional CO2), 10 μL of the 10× drug prep was added. […]

[2] = test system: ZR-75-1 human breast cancer cells; assay: as above; settings: Experiment 2, narrow concentration range, 72 hours
Experimental: as §1

[3] = test system: MDA-MB-231 human breast cancer cells; assay: as above; settings: 72 hours
Experimental: as §1

[4] = test system: Hs578t human breast cancer cells; assay: as above; settings: Hs-578T, 72 hours
Experimental: as §1

[5] = test system: MDA-MB-436 human adenocarcinoma derived cancer cells; assay: as above; settings: 144 hours
Experimental: as §1

[6] = test system: MDA-MB-415 human breast cancer cells; assay: as above; settings: 144 hours
Experimental: as §1

[7] = test system: MDA-MB-175VII human breast cancer cells; assay: as above; settings: 144 hours
Experimental: as §1

[8] = test system: BT-549 human breast cancer cells; assay: as above; settings: 72 hours
Experimental: as §1

[9] = test system: HCC70 human breast cancer cells; assay: as above; settings: 72 hours
Experimental: as §1

[10] = test system: HCC1806 human breast cancer cells; assay: as above; settings: 72 hours
Experimental: as §1

[11] = test system: MCF-7 human breast cancer cells; assay: as above; settings: 72 hours
Experimental: as §1

[12] = test system: MDA-MB-134VI human breast cancer cells; assay: as above; settings: 144 hours
Experimental: as §1

[13] = test system: panel of 12 human breast cancer cell lines; assay: Single agent inhibitory activity across the cell line panel; settings: all 12 cell lines, Experiments 1 and 2
Experimental: The growth inhibitory activities of two test agents, eribulin and entinostat, were determined alone and in combination against 12 human breast cancer cell lines (Table 1). The human breast tumor cell lines were selected based on their profile characteristics of being either human epidermal growth factor receptor 2 negative (Her2') and estrogen receptor positive (ER^+) or Triple Negative (Her2^-, ER^-, and progesterone receptor negative [PR^-]). Activities of individual agents were determined by curve-fitting the concentration of agent that inhibits cell growth by 50% compared to the control cells in a four parameter-logistic equation, whereas agent combinations were determined by the method of (Chou and […] Advances in Enzyme Regulation 22:27-55, 1984), and analyzed with CalcuSyn software. Fa, the fraction of affected drug targets at a given drug concentration, was calculated from the fractional decrease. […] Finally, in Experiment 3, we determined the antiproliferative activity of the study agents in combination against the panel of human tumor cell lines. […] We further analyzed quadruplicate samples over a seven point dose response range. […] The medium/Cell Titer-Glo® reagent was transferred to a white polystyrene 96-well microculture plate (Corning® Costar® 96-well flat bottom plate, Cat. No. 3917) before determining luminescence on the Tecan GENios microplate. […]

[14] = Experiment 1, wide concentration range, read-out: Wide range IC50
[15] = Experiment 2, narrow concentration range, read-out: Narrow range IC50
[16] = MCF7, Experiment 1, wide concentration range, read-out: Wide range IC50
[17] = MCF7, Experiment 2, narrow concentration range, read-out: Narrow range IC50

Nc1ccccc1NC(=O)c1ccc(CNC(=O)OCc2cccnc2)cc1 [entinostat, pyridin-3-yl methyl N-[[4-[(2-aminophenyl)carbarnoyl]phenyl]methyl carbamate]
pIC50 [1, 14]: 5.80
pIC50 [1, 15]: 5.75
pIC50 [2]: 5.31
pIC50 [3, 14]: 6.21
pIC50 [3, 15]: 6.03
pIC50 [4, 14]: 5.96
pIC50 [4, 15]: 5.85
pIC50 [5, 14]: 6.09
pIC50 [5, 15]: 5.86
pIC50 [6, 14]: 7.04
pIC50 [6, 15]: 6.85
pIC50 [7, 14]: 6.68
pIC50 [7, 15]: 5.93
pIC50 [8, 14]: 5.90
pIC50 [8, 15]: 5.82
pIC50 [9, 14]: 5.84
pIC50 [9, 15]: 5.95
pIC50 [10, 14]: 6.26
pIC50 [10, 15]: 5.91
pIC50 [11, 16]: 6.27
pIC50 [11, 17]: 6.24
pIC50 [12, 14]: 6.41
pIC50 [12, 15]: 6.10

C=C1C[C@@H]2CC[C@@]34C[C@H]5O[C@H]6[C@@H](O3)[C@H]3O[C@H](CC[C@@H]3O[C@H]6[C@H]5O4)CC(=O)C[C@@H]3[C@@H](OC)[C@@H](C[C@H](O)CN)O[C@H]3C[C@H]3O[C@@H](CC[C@@H]1O2)C[C@@H](C)C3=C [eribulin]
pIC50 [1, 15]: 8.94
pIC50 [3, 14]: 9.59
pIC50 [3, 15]: 9.28
pIC50 [4, 14]: 9.41
pIC50 [4, 15]: 9.17
pIC50 [5, 14]: 8.55
pIC50 [5, 15]: 8.49
pIC50 [6, 14]: 9.19
pIC50 [6, 15]: 9.24
pIC50 [7, 14]: 9.26
pIC50 [7, 15]: 8.96
pIC50 [8, 14]: 9.64
pIC50 [8, 15]: 9.41
pIC50 [9, 14]: 9.46
pIC50 [10, 14]: 9.60
pIC50 [10, 15]: 9.52
pIC50 [11, 16]: 9.66
pIC50 [11, 17]: 9.43
pIC50 [12, 14]: 9.21
pIC50 [12, 15]: 9.06
Relative potency of single agents [13]: more potent than entinostat in all cell lines

Reference: US20190282541A1, “USE OF ERIBULIN AND HISTONE DEACETYLASE INHIBITORS IN THE TREATMENT OF CANCER” (EISAI R&D MANAGEMENT CO., LTD., priority 2016, published 2019)
